Source: patent US20070014718A1, “Kits for gastric emptying measurement” (Atomic Energy Council - Institute of Nuclear Energy Research, priority 2005, published 2007)
Like-named read-outs stand apart in the source and are kept apart here.

Assays:
[1] = Shelf-life / chemical stability on storage; assay type: physicochemical; details: stored at a room temperature
Text: Please refer to FIG. 1 and FIG. 2, which are views showing a kit for a gastric emptying measurement and isotope tracer retention in a solid phase of a test meal, according to the present invention, where isotope tracer retention percentage is obtained in FIG. 2 in vitro gastric digest at pH 2.3 to imitate the gastric condition after administering the test meal. […] A standardized recipe is provided to clinicians in the test meal, which has fixed proportions of carbohydrate, protein, and fat. The raw ingredients in the test meal include a lyophilized egg flour. The characteristic is that the isotope tracer 2 is coagulated with albumin of the egg flour into a solid form at more than 75° C., which means the isotope tracer is well incorporated into a food product. More than 90% of the isotope tracer is retained in a mimic gastric fluid at 35˜39° C. for three hours. […] More than 98% of the Tc-99 m phytate is retained in a mimic gastric fluid at 35˜39° C. for 4 hours. More than 90% of the Tc-99 m DTPA is retained in a mimic gastric fluid at 35˜39° C. for 3 hours The dry mix 1 comprises egg powder (7.4%), all purpose flour (19.6%), glutinous rice powder (3.9%), whole milk powder (35.7%), levulose (fructose) flour (8%), foaming powder (3%), cream powder (22%), cream fragrance powder (0.2%), and salt (0.2%), having a most preferred calorie of about 289.5±12.5 kcal. […]

[2] = for % ^13C (dose/hr): breath, patient X, 50 mg
Experimental: The test meal is administered after an overnight fast along with 100 mL of water within 10 minutes. The first one of the breath samples is collected before the test meal is administered so that a baseline is obtained. And the rest of the breath samples are collected with an 15-minute intervals during 4 hours after the test meal is administered. A measurement can be conveniently done using an isotope ratio mass spectrometer. The results obtained are then expressed in a δ^13C value (^13C/^12C). […] The ^13CO2 excretion parameters are derived from the chi-square distribution in statistics and the equation is expressed as follows. CD=m(1−e^−kt)^β , where CD is the cumulative percentage of the administered dose; t is the time; and, m is the total cumulative percentage of the dose recovered.
A non-linear regression analysis is performed on the originally measured data to obtain values of the m, k, and β for each individual breath test.
The half emptying time is calculated by making CD equal to m/2 in the CD equation: [formula] B. Lag Phase:
The lag phase for the breath test has been defined, which is expressed as follows: tlag=1/k ln β
The % ^13C dose/hr is calculated by the following equation Eq. 1: [formula] • The definition of mmol ^13C excess in breath (a) and mmol ^13C excess administered (b) were shown below: [formula] • 0.0112372 is the ratio of ^13C/^12C of PDB • % ^13Ct and % ^13Ct0: the concentration of ^13C at time t and t0 (i.e. time zero) • δt=δ^13C value at time t (% ^13Ct−% ^13Ct0) is also called “^13C atom percent excess” [formula] • % ^13Csubstr.=% ^13C present in substrate • M=molar mass of substrate • m=amount of substrate • n=number of atoms, ^13C-labelled • (13) The % ^13C cumulative dose is derived numerically from the % ^13C dose/hr data and is calculated from the following Eq. 2, which informs about the global process. [formula] • n=number of samples per hour • n=4, if a breath sample is taken every 15 minutes • ti=time i
• (14) Mathematically analyzing the ^13CO2 excretion curves with a Sigma plot software. […] All of these parameters were determined by a non-linear regression analysis. The half emptying time is calculated by making CD equal to m/2 in the CD equation and being defined by [formula] • . […] The lag phase for the breath test is expressed as tlag=1/k ln β (Eq. 4).

[3] = In-vitro gastric simulation: isotope tracer retention in solid phase of test meal; assay type: in vitro ADME; details: mimic gastric fluid
Experimental: After chewing the test meal, it is put into a semi-permeable membrane (Spectra/PorMembrane MWCO 3,500, 54 mm×150 mm) incubated and shook with a simulated gastric juice (2 g (gram) of sodium chloride; 3.2 g of pepsin; and, 7 mL of HCl in 1000 mL, pH 1.2) at 37±2° C. having different time intervals. 5 mL aliquot of the liquid phase were removed at regular 60 min intervals, centrifuged and aliquots of the supernatants removed for C-13 glycine quantification with Liquid Chromatography/Mass Spectrometry.
To assess the extent of Tc-99 m phytate retention in the solid phase of the test meal, a simulated gastric digest is made. A muffin is prepared as described above with 1 mCi of a Tc-99 m phytate, which is equivalent to 156.25 μg (microgram) with a specific activity of 10.06 mCi/μmol (μmol, micromolar) mixed with the dry mix 1 and water. […] 5 mL aliquot of the liquid phase were removed at regular 60 min intervals, centrifuged and aliquots of the supernatants removed for liquid scintillation counting Results are then expressed as a percentage, P %, of the initial amount of a radioactivity added. […]

NC[13C](=O)O [^13C glycine]
shelf-life [1]: more than 5 year
% ^13C (dose/hr) ([2]; sampling time 15 min): 1.104 % ^13C dose/hr
% ^13C (dose/hr) ([2]; sampling time 30 min): 2.802 % ^13C dose/hr
% ^13C (dose/hr) ([2]; sampling time 45 min): 3.905 % ^13C dose/hr
% ^13C (dose/hr) ([2]; sampling time 60 min): 4.754 % ^13C dose/hr
% ^13C (dose/hr) ([2]; sampling time 75 min): 5.603 % ^13C dose/hr
% ^13C (dose/hr) ([2]; sampling time 90 min): 5.093 % ^13C dose/hr
% ^13C (dose/hr) ([2]; sampling time 105 min): 5.857 % ^13C dose/hr
% ^13C (dose/hr) ([2]; sampling time 120 min): 6.027 % ^13C dose/hr
% ^13C (dose/hr) ([2]; sampling time 135 min): 6.706 % ^13C dose/hr
% ^13C (dose/hr) ([2]; sampling time 150 min): 5.857 % ^13C dose/hr
% ^13C (dose/hr) ([2]; sampling time 165 min): 5.263 % ^13C dose/hr
% ^13C (dose/hr) ([2]; sampling time 180 min): 4.414 % ^13C dose/hr
% ^13C (dose/hr) ([2]; sampling time 195 min): 3.65 % ^13C dose/hr
% ^13C (dose/hr) ([2]; sampling time 210 min): 3.65 % ^13C dose/hr
% ^13C (dose/hr) ([2]; sampling time 225 min): 3.056 % ^13C dose/hr
% ^13C (dose/hr) ([2]; sampling time 240 min): 2.547 % ^13C dose/hr
k ([2]; human, in vivo): 0.0101
m (total cumulative percentage of the dose recovered) ([2]; human, in vivo): 22.844
β ([2]; human, in vivo): 2.8256

O=C([O-])CN(CCN(CC(=O)[O-])CC(=O)[O-])CCN(CC(=O)[O-])CC(=O)[O-].[99Tc+4] [Tc-99 m DTPA, Tc-99 m DTPA (diethyl-triamine-pentaacetic acid)]
isotope tracer retained (incorporated) in the test meal ([3]; 35˜39° C. (37±2° C.), 4 hours): more than 87%
isotope tracer retained in the test meal ([3]; 35˜39° C., 3 hours): More than 90%
